According to US12409172B2, “Dosage regimen” (UNION therapeutics A/S, priority 2023, dated 2025):

Experiments:
[1] = test system: TNF-α secretion from human whole blood; assay: LPS and SEB-induced TNF-α secretion from human whole blood; assay type: cell-based; conditions: average; both LPS and SEB-induced TNF-α secretion from human whole blood
[2] = test system: pruritus (itch) associated with atopic dermatitis; assay: Phase 2b study in atopic dermatitis (Examples 8, 9): ≥4-point improvement in peak pruritus NRS (PPNRS); assay type: in vivo, human
Protocol: The severity of itch (pruritus) due to AD will be assessed using a horizontal 11-point NRS. Patients will be asked to assess their “worst itching due to AD over the past 24 hours” on an NRS anchored by the terms “no itching” (0) and “worst possible itching” (10). The item will be completed at each visit via an application on an electronic device in the clinic or the patient's own electronic device from baseline through Week 20.
The binary secondary efficacy endpoint, 4-point improvement in the peak pruritis numerical rating scale (“responders”), was analysed using the Mantel-Haenszel (MH) test and Fisher's exact tests, comparing the proportions of PPNRS responders in each active treatment group with placebo (intent-to-treat (ITT) population).
The ITT population included all randomized subjects who received at least 1 dose of orismilast. The treatment group assignment was designated according to initial randomization. The ITT population served as the basis for the analysis of efficacy.
PPNRS assesses the severity of itch (pruritus) due to atopic dermatitis using a horizontal 11-point NRS. […]
In FIG. 34, “Observed” or “Obs” refers to all subjects in the ITT Population with a recorded PPNRS score, i.e. if the PPNRS score is missing the value was not imputed. […]

[3] = test system: adults with moderate to severe atopic dermatitis; assay: Phase 2b study in atopic dermatitis (Example 8): treatment emergent adverse events; assay type: in vivo, human
Excerpt: The exploratory objectives are to: • Evaluate pharmacokinetic (PK) and pharmacodynamic parameters relevant to AD • Evaluate the effect of orismilast on the pulmonary status and course of the disease in patients with asthma Primary Endpoint • Percentage change in Eczema Area and Severity Index (EASI) score from Baseline at Week 16. […]

O=C(Cc1c(Cl)c[n+]([O-])cc1Cl)c1ccc(OC(F)F)c2c1OC1(CCS(=O)(=O)CC1)O2 [orismilast, 2-(3,5-dichloro-1-oxidopyridin-1-ium-4-yl)-1-[7-(difluoromethoxy)-1′,1′-dioxospiro[1,3-benzodioxole-2,4′-thiane]-4-yl]ethanone]
potency relative to apremilast on a molar basis [1]: 23 times
≥4-point reduction in itch NRS / PPNRS at week 2 compared to placebo ([2]; all active arms (20, 30, 40 mg BID), MI p<0.05): significant
≥4 point reduction in PPNRS at week 16 compared to placebo ([2]; all active arms, subjects having severe itch (PPNRS>7) at baseline, Observed p<0.05 or p<0.1): statistically significant improvement
patients experiencing any Treatment Emergent Adverse Event (TEAE) through Week 16 ([3]; 20 mg BID): 76%
patients experiencing any Treatment Emergent Adverse Event (TEAE) through Week 16 ([3]; 30 mg BID): 79%
patients experiencing any Treatment Emergent Adverse Event (TEAE) through Week 16 ([3]; 40 mg BID): 86%
